Where “and” joins values, the source holds several entries; their conditions need not be identical. Equal values may be shown once. Read-outs that look alike come from different tables or passages of the source.
Columns and labels:
[1] = tested on: NCI-H358 (K-Ras G12C); assay: CellTiter-Glo cell viability assay, 5-day treatment; format: cell-based; details: Homo sapiens
Description: Protocol: CellTiter-Glo® Cell Viability Assay
Note—The following protocol describes a procedure for monitoring cell viability of K-Ras mutant cancer cell lines in response to a compound of the invention. Other RAS isoforms may be employed, though the number of cells to be seeded will vary based on cell line used.
Test compounds (132.5 nL) were directly dispensed into the assay plates containing cells. […] On day 5, assay plates and their contents were equilibrated to room temperature for approximately 30 minutes. […] Luminescence was measured using the PerkinElmer Enspire. Data were normalized by the following: (Sample signal/Avg. DMSO)*100. The data were fit using a four-parameter logistic fit.
Test compounds (132.5 nl) were directly dispensed into the assay plates containing cells. […] On day 5, assay plates and their contents were equilibrated to room temperature for approximately 30 minutes. […] Luminescence was measured using the PerkinElmer Enspire. Data were normalized by the following: (Sample signal/Avg. DMSO)*100. The data were fit using a four-parameter logistic fit.

[2] = target: KRAS G13C (Homo sapiens, UniProt P01116+P62937, G13C); assay: Disruption of BRAF RBD interaction with Ras (FRET / MOA assay, with Cyclophilin A); format: biochemical
Sequence of KRAS G13C (P01116 1-169 isoform P01116-2 G13C): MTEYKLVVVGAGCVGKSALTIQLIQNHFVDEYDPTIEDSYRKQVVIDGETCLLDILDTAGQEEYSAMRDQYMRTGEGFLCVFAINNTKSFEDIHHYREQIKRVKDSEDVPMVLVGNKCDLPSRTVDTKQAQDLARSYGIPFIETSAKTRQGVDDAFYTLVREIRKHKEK
Sequence of KRAS G13C (P62937 whole entry): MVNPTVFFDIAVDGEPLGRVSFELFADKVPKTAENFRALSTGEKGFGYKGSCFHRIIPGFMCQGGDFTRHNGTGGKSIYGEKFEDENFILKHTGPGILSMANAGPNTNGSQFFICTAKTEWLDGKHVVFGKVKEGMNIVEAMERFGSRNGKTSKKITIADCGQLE
Source text: (§1) This protocol may also be executed substituting other Ras proteins or nucleotides.
(§2) The purpose of this biochemical assay was to measure the ability of test compounds to facilitate ternary complex formation between a nucleotide-loaded K-Ras isoform and Cyclophilin A; the resulting ternary complex disrupts binding to a BRAF^RBD construct, inhibiting K-Ras signaling through a RAF effector. Data is reported as IC50 values.
(§3) Compound was present in plate wells as a 10-point 3-fold dilution series starting at a final concentration of 30 μM. After incubation at 25° C. for 3 hours, a mixture of Anti-His Eu-W1024 and anti-GST allophycocyanin was then added to assay sample wells at final concentrations of 10 nM and 50 nM, respectively, and the reaction incubated for an additional 1.5 hours. […] Compounds that facilitate disruption of a K-Ras:RAF complex were identified as those eliciting a decrease in the TR-FRET ratio relative to DMSO control wells.
(§4) The purpose of this biochemical assay was to measure the ability of test compounds to facilitate ternary complex formation between a nucleotide-loaded K-Ras isoform and Cyclophilin A; the resulting ternary complex disrupts binding to a BRAF^RBDD construct, inhibiting K-Ras signaling through a RAF effector. Data is reported as IC50 values.

[3] = target: NRAS G12C (Homo sapiens, UniProt P01111+P62937, G12C); assay: as above; format: biochemical; details: NRAS G12C; read-out: NRAS G12C FRET data IC50
Sequence of NRAS G12C (P01111 whole entry G12C): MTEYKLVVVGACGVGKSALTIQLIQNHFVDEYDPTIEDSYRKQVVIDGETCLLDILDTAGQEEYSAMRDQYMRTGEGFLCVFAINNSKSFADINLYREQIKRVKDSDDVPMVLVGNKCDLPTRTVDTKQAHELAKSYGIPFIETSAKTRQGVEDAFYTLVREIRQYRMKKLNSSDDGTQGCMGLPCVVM
Sequence of NRAS G12C (P62937 whole entry): as the sequence (P62937 whole entry) above
Source text: as §1, §2, §3, §4

[4] = target: KRAS G13D (Homo sapiens, UniProt P01116+P62937, G13D); assay: as above; format: biochemical; details: KRAS G13D; read-out: KRAS G13D FRET data IC50
Sequence of KRAS G13D (P01116 1-169 isoform P01116-2 G13D limits assumed): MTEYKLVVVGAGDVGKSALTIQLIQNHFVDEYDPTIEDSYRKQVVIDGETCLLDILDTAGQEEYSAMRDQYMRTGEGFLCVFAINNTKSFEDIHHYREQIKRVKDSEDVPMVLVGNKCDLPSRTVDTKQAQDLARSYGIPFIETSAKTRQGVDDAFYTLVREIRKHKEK
Sequence of KRAS G13D (P62937 whole entry): as the sequence (P62937 whole entry) above
Source text: as §1, §2, §3, §4

[5] = target: KRAS G12D (Homo sapiens, UniProt P01116+P62937, G12D); assay: as above; format: biochemical; details: read-out: KRAS G12D FRET data, IC50
Sequence of KRAS G12D (P01116 1-169 isoform P01116-2 G12D limits assumed): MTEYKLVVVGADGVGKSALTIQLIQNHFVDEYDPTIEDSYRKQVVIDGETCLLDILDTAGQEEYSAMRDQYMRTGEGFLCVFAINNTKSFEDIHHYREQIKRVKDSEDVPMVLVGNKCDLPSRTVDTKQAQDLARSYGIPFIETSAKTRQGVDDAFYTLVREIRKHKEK
Sequence of KRAS G12D (P62937 whole entry): as the sequence (P62937 whole entry) above
Source text: as §1, §2, §3, §4

[6] = target: KRAS G12S (Homo sapiens, UniProt P01116+P62937, G12S); assay: as above; format: biochemical; details: read-out: KRAS G12S FRET data, IC50
Sequence of KRAS G12S (P01116 1-169 isoform P01116-2 G12S limits assumed): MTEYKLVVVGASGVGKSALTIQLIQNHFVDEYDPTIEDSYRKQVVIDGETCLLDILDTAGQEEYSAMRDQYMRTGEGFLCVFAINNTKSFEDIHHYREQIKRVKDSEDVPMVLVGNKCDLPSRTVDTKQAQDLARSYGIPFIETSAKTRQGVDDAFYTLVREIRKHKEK
Sequence of KRAS G12S (P62937 whole entry): as the sequence (P62937 whole entry) above
Source text: as §1, §2, §3, §4

[7] = target: KRAS G12C (Homo sapiens, UniProt P01116+P62937, G12C); assay: as above; format: biochemical
Sequence of KRAS G12C (P01116 1-169 isoform P01116-2 G12C): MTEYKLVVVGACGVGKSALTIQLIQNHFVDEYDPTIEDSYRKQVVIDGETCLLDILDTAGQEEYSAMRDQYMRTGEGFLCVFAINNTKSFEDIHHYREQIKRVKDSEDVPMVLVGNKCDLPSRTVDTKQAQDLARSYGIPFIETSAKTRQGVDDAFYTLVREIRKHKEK
Sequence of KRAS G12C (P62937 whole entry): as the sequence (P62937 whole entry) above
Source text: as §1, §2, §3, §4

[8] = target: KRAS G12V (Homo sapiens, UniProt P01116+P62937, G12V); assay: as above; format: biochemical; details: KRAS G12V; read-out: KRAS G12V FRET data IC50
Sequence of KRAS G12V (P01116 1-169 isoform P01116-2 G12V limits assumed): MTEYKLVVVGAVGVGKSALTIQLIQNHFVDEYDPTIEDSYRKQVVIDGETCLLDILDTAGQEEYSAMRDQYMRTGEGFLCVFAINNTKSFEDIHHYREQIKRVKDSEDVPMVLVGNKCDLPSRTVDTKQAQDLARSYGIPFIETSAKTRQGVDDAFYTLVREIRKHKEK
Sequence of KRAS G12V (P62937 whole entry): as the sequence (P62937 whole entry) above
Source text: as §1, §2, §3, §4

[9] = target: KRAS WT (Homo sapiens, UniProt P01116+P62937); assay: as above; format: biochemical; details: KRAS WT; read-out: KRAS WT FRET data IC50
Sequence of KRAS WT (P01116 1-169 isoform P01116-2 limits assumed): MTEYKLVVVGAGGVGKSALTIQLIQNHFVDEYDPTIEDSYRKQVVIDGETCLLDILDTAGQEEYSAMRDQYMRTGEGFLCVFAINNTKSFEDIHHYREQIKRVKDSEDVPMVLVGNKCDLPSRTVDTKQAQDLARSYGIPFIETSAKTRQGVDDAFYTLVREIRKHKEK
Sequence of KRAS WT (P62937 whole entry): as the sequence (P62937 whole entry) above
Source text: as §1, §2, §3, §4

[10] = NCI-H358, H358, K-Ras G12C, read-out: Additional H358 Cell Viability assay data (K-Ras G12C, IC50)
[11] = KRAS G13C, read-out: KRAS G13C FRET data IC50
[12] = KRAS G12C, read-out: KRAS G12C FRET data IC50
[13] = read-out: KRAS G13C FRET data, IC50
[14] = read-out: KRAS G12C FRET data, IC50
[15] = NCI-H358, 120 h, 5-day treatment, read-out: H358 Cell Viability assay data (K-Ras G12C, IC50)

SMILES | IC50 [1, 10] | IC50 [3] | IC50 [4] | IC50 [5] | IC50 [6] | IC50 [8] | IC50 [9] | also measured
C=CC(=O)N1CC[C@H](C(=O)N(C)[C@H](C(=O)N[C@H]2Cc3cc(O)cc(c3)-c3ccc4c(c3)c(c(-c3ccccc3CCOC)n4C(C)(C)C#N)CC(C)(C)COC(=O)[C@@H]3CCCN(N3)C2=O)C(C)C)C1 [Example A34] | 0.01 to 0.1 µM |  |  |  |  |  |  | 
CCn1c(-c2ccccc2CCOC)c2c3cc(ccc31)-c1cc(O)cc(c1)C[C@H](NC(=O)[C@H](C(C)C)N(C)C(=O)[C@H]1CCN(C(=O)C#CCN(C)C)C1)C(=O)N1CCC[C@H](N1)C(=O)OCC(C)(C)C2 [Example A038] |  | < 0.01 µM | 1 to 10 µM | 1 to 10 µM | 1 to 10 µM and > 10 µM | 1 to 10 µM and > 10 µM | 1 to 10 µM and > 10 µM | IC50 [2, 11]: 0.1 to 1 µM and 0.01 to 0.1 µM; IC50 [7, 12]: 0.01 to 0.1 µM and < 0.01 µM
C=CS(=O)(=O)N1CC[C@H](C(=O)N(C)[C@H](C(=O)N[C@H]2Cc3cc(O)cc(c3)-c3ccc4c(c3)c(c(-c3cccnc3COC)n4CC)CC(C)(C)COC(=O)[C@@H]3CCCN(N3)C2=O)C(C)C)C1 [Example A069] |  | 0.01 to 0.1 µM | 1 to 10 µM | > 10 µM | 1 to 10 µM | 0.1 to 1 µM | 0.1 to 1 µM | IC50 [2, 11]: 0.01 to 0.1 µM; IC50 [7, 12]: 0.01 to 0.1 µM
CCn1c(-c2cnccc2COC)c2c3cc(ccc31)-c1cc(O)cc(c1)C[C@H](NC(=O)[C@H](C(C)C)N(C)CC(F)(F)F)C(=O)N1CCC[C@H](N1)C(=O)OCC(C)(C)C2 [Example A77] |  | > 10 µM | 1 to 10 µM | > 10 µM | > 10 µM | > 10 µM | > 10 µM | IC50 [2, 13]: 1 to 10 µM; IC50 [7, 14]: 1 to 10 µM
CCn1c(-c2cnccc2COC)c2c3cc(ccc31)-c1cc(O)cc(c1)C[C@H](NC(=O)[C@H](C(C)C)N(C)C(=O)OC1CNC1)C(=O)N1CCC[C@H](N1)C(=O)OCC(C)(C)C2 [Example A81] |  | 0.1 to 1 µM | 0.1 to 1 µM | 0.1 to 1 µM | 0.1 to 1 µM | 1 to 10 µM | 0.1 to 1 µM | IC50 [2, 13]: 0.1 to 1 µM; IC50 [7, 14]: 0.1 to 1 µM
C=CC(=O)N1CC[C@H](C(=O)N(C)[C@H](C(=O)N[C@H]2Cc3cc(O)cc(c3)-c3ccc4c(c3)c(c(-c3ccncc3COC)n4CC)CC(C)(C)COC(=O)[C@@H]3CCCN(N3)C2=O)C(C)C)C1 [Example A91] | < 0.01 µM |  |  |  |  |  |  | 
C=CC(=O)N1CC[C@H](C(=O)N(C)[C@H](C(=O)N[C@H]2Cc3nc(cs3)-c3ccc4c(c3)c(c(-c3cccnc3COC)n4CC)CC(C)(C)COC(=O)[C@@H]3CCCN(N3)C2=O)C(C)C)C1 [Example A094] |  | 0.1 to 1 µM | > 10 µM | > 10 µM | > 10 µM | > 10 µM | > 10 µM | IC50 [2, 11]: > 10 µM; IC50 [7, 12]: 0.1 to 1 µM
CCn1c(-c2cccnc2[C@H](C)OC)c2c3cc(ccc31)-c1cc(O)cc(c1)C[C@H](NC(=O)[C@H](C(C)C)N(C)C(=O)[C@H]1CCN(C(=O)OC(C)C)C1)C(=O)N1CCC[C@H](N1)C(=O)OCC(C)(C)C2 [Example A117] |  | 0.1 to 1 µM and 1 to 10 µM | 0.1 to 1 µM and > 10 µM | 1 to 10 µM and > 10 µM | 0.1 to 1 µM and > 10 µM | 1 to 10 µM and 0.01 to 0.1 µM | 0.1 to 1 µM and > 10 µM | IC50 [2, 13]: 0.1 to 1 µM and > 10 µM; IC50 [7, 14]: 1 to 10 µM and 0.01 to 0.1 µM
CCn1c(-c2cccnc2[C@H](C)OC)c2c3cc(ccc31)-c1cc(O)cc(c1)C[C@H](NC(=O)[C@H](C(C)C)N(C)C(=O)[C@@H]1NC[C@@H]3C[C@@H]31)C(=O)N1CCC[C@H](N1)C(=O)OCC(C)(C)C2 [Example A217] |  |  |  |  |  |  |  | IC50 [1, 15]: 0.01 to 0.1 µM
CCn1c(-c2cccnc2[C@H](C)OC)c2c3cc(ccc31)-c1cc(O)cc(c1)C[C@H](NC(=O)[C@H](C(C)C)N(C)C(=O)C1CCCC1)C(=O)N1CCC[C@H](N1)C(=O)OCC(C)(C)C2 [Example A219] |  |  |  |  |  |  |  | IC50 [1, 15]: 0.1 to 1 µM
CCn1c(-c2cccnc2[C@H](C)OC)c2c3cc(ccc31)-c1csc(n1)C[C@H](NC(=O)[C@H](C(C)C)N1CCC3(CCN(C(=O)OC)C3)C1=O)C(=O)N1CCC[C@H](N1)C(=O)OCC(C)(C)C2 (stereo partly drawn) [Example A221] |  |  |  |  |  |  |  | IC50 [1, 15]: 0.1 to 1 µM
CCn1c(-c2cccnc2[C@H](C)OC)c2c3cc(ccc31)-c1cc(O)cc(c1)C[C@H](NC(=O)[C@H](C(C)C)N(C)C(=O)[C@@H]1C[C@@H]1C)C(=O)N1CCC[C@H](N1)C(=O)OCC(C)(C)C2 [Example A223] |  |  |  |  |  |  |  | IC50 [1, 15]: 0.01 to 0.1 µM

Now from value to molecule, other results behind:

IC50 [1, 10] | IC50 [3] | IC50 [4] | IC50 [5] | IC50 [6] | IC50 [8] | IC50 [9] | SMILES | also measured
0.01 to 0.1 µM |  |  |  |  |  |  | CCn1c(-c2cccnc2[C@H](C)OC)c2c3cc(ccc31)-c1cccc(c1)C[C@H](NC(=O)[C@H](C(C)C)N(C)C(=O)[C@H]1CCN(C(=O)/C=C/CN3CC(OC)C3)C1)C(=O)N1CCC[C@H](N1)C(=O)OCC(C)(C)C2 (atropisomer, axis not shown) [Example A204] | 
0.1 to 1 µM |  |  |  |  |  |  | C=CC(=O)N1CC[C@H](C(=O)N(C)[C@H](C(=O)N[C@H]2Cc3cc(O)cc(c3)-c3ccc4c(c3)c(c(-c3cccnc3[C@@H](OC)C3CC3)n4CC)CC(C)(C)COC(=O)[C@@H]3CCCN(N3)C2=O)C(C)C)C1 (atropisomer, axis not shown) [Example A206] | 
0.1 to 1 µM |  |  |  |  |  |  | C=CC(=O)N1CC[C@H](C(=O)N(C)[C@H](C(=O)N[C@H]2C[C@H]3CN(CCO3)c3ccc4c(c3)c(c(-c3cccnc3[C@H](C)OC)n4CC)CC(C)(C)COC(=O)[C@@H]3CCCN(N3)C2=O)C(C)C)C1 (atropisomer, axis not shown) [Example A378] | 
< 0.01 µM |  |  |  |  |  |  | CCn1c(-c2cccnc2COC)c2c3cc(ccc31)-c1cc(C)cc(c1)C[C@H](NC(=O)[C@H](C(C)C)N(C)C(=O)[C@H]1CCN(C(=O)C#CCN(C)C)C1)C(=O)N1CCC[C@H](N1)C(=O)OCC(C)(C)C2 [Example A157] | 
0.1 to 1 µM |  |  |  |  |  |  | C=CC(=O)N1CC[C@H](C(=O)N(C)[C@H](C(=O)N[C@H]2Cc3nc(cs3)-c3ccc4c(n3)c(c(-c3cccnc3[C@H](C)OC)n4CC)CC(C)(C)COC(=O)[C@@H]3CCCN(N3)C2=O)C(C)C)C1 [Example A347, (2S)—N-[(7S,13S)-21-ethyl-20-{2-[(1S)-1-methoxyethyl]pyridin-3-yl}-17,17-dimethyl-8,14-dioxo-15-oxa-4-thia-9,21,25,27,28-pentaazapentacyclo[17.5.2.1^{2,5}.1^{9,13}.0^{22,26}]octacosa-1(25),2,5(25),19,22(26),23-hexaen-7-yl]-3-methy-2-{N-methyl-1-[(3S)-1-(prop-2-enoyl)pyrrolidin-3-yl]formamido}butanamide] | 
< 0.01 µM |  |  |  |  |  |  | C=CC(=O)Nc1cnc(C(=O)N(C)[C@H](C(=O)N[C@H]2Cc3cccc(c3)-c3ccc4c(c3)c(c(-c3cccnc3[C@H](C)OC)n4CC)CC(C)(C)COC(=O)[C@@H]3CCCN(N3)C2=O)C(C)C)n1C [Example A525] | 
